Results taken from the NIST ThermoML archive (doi:10.1021/je300153f).
± gives the expanded uncertainty stated by the source.

Settings: for mass density / electrical conductivity / viscosity: 101.33 kPa; for mass density / electrical conductivity / surface tension liquid-gas / viscosity: Liquid; for electrical conductivity: MP522 conductivity meter; for surface tension liquid-gas: Maximal bubble pressure; for viscosity: Capillary tube (Ostwald / Ubbelohde) method

CCCC[n+]1cccc(C)c1.O=S(=O)([N-]S(=O)(=O)C(F)(F)F)C(F)(F)F
Settings | electrical conductivity [S/m] | mass density [kg/m3] | surface tension liquid-gas [mN/m] | viscosity [mPa·s]
278.15 K | 0.1 ± 0.002 | 1439.9 ± 5.8 | – | –
283.15 K | 0.132 ± 0.003 | 1435.7 ± 5.8 | 29.2 ± 0.3 | –
288.15 K | 0.172 ± 0.004 | 1431.5 ± 5.7 | 28.8 ± 0.3 | –
293.15 K | 0.217 ± 0.005 | 1427.1 ± 5.7 | 28.4 ± 0.3 | –
298.15 K | 0.272 ± 0.006 | 1422.6 ± 5.7 | 28.2 ± 0.3 | 63.2 ± 1.4
303.15 K | 0.335 ± 0.007 | 1418.3 ± 5.7 | 27.8 ± 0.3 | 51.1 ± 1.1
308.15 K | 0.409 ± 0.009 | 1414.2 ± 5.7 | 27.4 ± 0.3 | 41.4 ± 0.9
313.15 K | 0.49 ± 0.01 | 1409.8 ± 5.7 | 27.2 ± 0.3 | 34 ± 0.8
318.15 K | 0.576 ± 0.012 | 1405.1 ± 5.6 | 26.7 ± 0.3 | 28.4 ± 0.6
323.15 K | 0.69 ± 0.014 | 1400.7 ± 5.6 | 26.4 ± 0.3 | 23.9 ± 0.5
328.15 K | 0.796 ± 0.017 | 1396.4 ± 5.6 | 26.1 ± 0.3 | 20.3 ± 0.4
333.15 K | 0.91 ± 0.019 | 1392.1 ± 5.6 | 25.8 ± 0.3 | 17.5 ± 0.4
338.15 K | 1.03 ± 0.021 | 1387.6 ± 5.6 | 25.4 ± 0.3 | 15.2 ± 0.3
343.15 K | 1.16 ± 0.024 | – | – | 13 ± 0.3
348.15 K | 1.3 ± 0.027 | – | – | 11.3 ± 0.3
353.15 K | 1.44 ± 0.029 | – | – | 10 ± 0.2

Settings | Glass transition temperature [°C]
Glass, DTA | -82.3 ± 3
